Data: US9101136B2, “Synergistic herbicide/fungicide composition containing certain pyridine carboxylic acids and certain fungicides” (Dow AgroSciences LLC, priority 2010, dated 2015)
Where two headings read alike, the source gives them in different places.

How the values were obtained:
Format in all cases: in vivo
[1] = tested on: wild pansy (Viola tricolor L; VIOTR); assay: Postemergence herbicidal activity of mixtures on wild pansy
Experimental: (§1) Seeds of the desired test plant species were planted in Sun Gro MetroMix 306 planting mixture, which typically has a pH of 6.0 to 6.8 and an organic matter content of about 30 percent, in plastic pots with a surface area of 103.2 square centimeters (cm^2). When required to ensure good germination and healthy plants, a fungicide treatment and/or other chemical or physical treatment was applied. The plants were grown for 7-36 days (d) in a greenhouse with an approximate 14-hour (h) photoperiod which was maintained at about 18° C. during the day and 17° C. during the night. Nutrients and water were added on a regular basis and supplemental lighting was provided with overhead metal halide 1000-Watt lamps as necessary. The plants were employed for testing when they reached the second or third true leaf stage.
(§2) Treatments consisted of a cereal fungicide compound (as listed in Tables 1 through 34) and the cereal herbicide, 4-amino-3-chloro-6-(4-chloro-2-fluoro-3-methoxyphenyl)pyridine-2-carboxylic acid, alone and in combination. Weighed amounts of acid, esters (methyl) or salts (triethylammonium, TEA) of 4-amino-3-chloro-6-(4-chloro-2-fluoro-3-methoxyphenyl)pyridine-2-carboxylic acid (Compound I) were placed in 25 milliliter (mL) glass vials and dissolved in a volume of 97:3 volume-to-volume (v/v) acetone/dimethyl sulfoxide (DMSO) to obtain 4.5 milligrams active ingredient per milliliter (mg ai/mL) concentrated solutions. […] The concentrated solutions of Compound I were diluted to 1.5 mg ai/mL with the addition of 2 volumes of an aqueous mixture containing acetone, water, isopropyl alcohol, DMSO, Agri-dex crop oil concentrate, and Triton® X-77 surfactant in a 64.7:26.0:6.7:2.0:0.7:0.01 v/v ratio. A dilution solution was prepared by mixing 1 volume of 97:3 v/v acetone/DMSO and 2 volumes of an aqueous mixture containing acetone, water, isopropyl alcohol, DMSO, Agri-dex crop oil concentrate, and Triton® X-77 surfactant in a 64.7:26.0:6.7:2.0:0.7:0.01 v/v ratio. Compound requirements are based upon a 12 mL application volume at a rate of 187 liters per hectare (L/ha). The concentrated solutions of the cereal fungicides were prepared following the same procedure. Weighed amounts of fungicide were placed in 25 mL glass vials and dissolved in a volume of 97:3 v/v acetone/DMSO to obtain concentrated fungicide solutions. The concentrated solutions of the safener were prepared following the same procedure. Weighed amounts of safener were placed in 25 mL glass vials and dissolved in a volume of 97:3 v/v acetone/DMSO to obtain concentrated safener solutions.
Spray solutions of the cereal herbicide and the fungicidal compound mixtures were prepared by adding the concentrated solutions to the appropriate amount of dilution solution to form 12 mL spray solution with active ingredients in combinations. Spray solutions of the cereal herbicide, herbicide safener and the fungicidal compound mixtures were prepared by adding the concentrated solutions to the appropriate amount of dilution solution to form 12 mL spray solution with active ingredients in combinations.
Formulated compounds were applied to the plant material with an overhead Mandel track sprayer equipped with 8002E nozzles calibrated to deliver 187 L/ha over an application area of 0.503 square meters (m^2) at a spray height of 18 inches […] above average plant canopy. Control plants were sprayed in the same manner with the solvent blank.
(§3) The treated plants and control plants were placed in a greenhouse as described above and watered by sub-irrigation to prevent wash-off of the test compounds. After 20-22 d, the condition of the test plants as compared with that of the control plants was determined visually and scored on a scale of 0 to 100 percent where 0 corresponds to no injury and 100 corresponds to complete kill. […]

[2] = tested on: redroot pigweed (Amaranthus retroflexus L; AMARE); assay: Postemergence herbicidal activity of mixtures on redroot pigweed; conditions: for AMARE Ob (observed control): alone
Experimental: as §1, §2
(§4) Spray solutions of the cereal herbicide and the fungicidal compound mixtures were prepared by adding the concentrated solutions to the appropriate amount of dilution solution to form 12 mL spray solution with active ingredients in combinations. Spray solutions of the cereal herbicide, herbicide safener and the fungicidal compound mixtures were prepared by adding the concentrated solutions to the appropriate amount of dilution solution to form 12 mL spray solution with active ingredients in combinations. […]
as §3

[3] = tested on: Canada thistle (Cirsium arvense L; CIRAR); assay: Postemergence herbicidal activity of mixtures on Canada thistle; conditions: for CIRAR Ob (observed control): alone
Experimental: as §1, §2, §4, §3

[4] = tested on: lamb's-quarter (Chenopodium album L; CHEAL); assay: Postemergence herbicidal activity of mixtures on lamb's-quarter; conditions: for CHEAL Ob (observed control): alone
Experimental: as §1
as §2, with “The concentrated solutions of the safener were prepared following the same procedure. Weighed amounts of safener were placed in 25 mL glass vials and dissolved in a volume of 97:3 v/v acetone/DMSO to obtain concentrated safener solutions.” left out
as §3

[5] = tested on: chickweed (Stellaria media L; STEME); assay: Postemergence herbicidal activity of mixtures on chickweed; conditions: for STEME Ob (observed control): alone
Experimental: as §1
Treatments consisted of a cereal fungicide compound (as listed in Tables 1 through 34) and the cereal herbicide, 4-amino-3-chloro-6-(4-chloro-2-fluoro-3-methoxyphenyl)pyridine-2-carboxylic acid, alone and in combination. Weighed amounts of acid, esters (methyl) or salts (triethylammonium, TEA) of 4-amino-3-chloro-6-(4-chloro-2-fluoro-3-methoxyphenyl)pyridine-2-carboxylic acid (Compound I) were placed in 25 milliliter (mL) glass vials and dissolved in a volume of 97:3 volume-to-volume (v/v) acetone/dimethyl sulfoxide (DMSO) to obtain 4.5 milligrams active ingredient per milliliter (mg ai/mL) concentrated solutions. […] The concentrated solutions of Compound I were diluted to 1.5 mg ai/mL with the addition of 2 volumes of an aqueous mixture containing acetone, water, isopropyl alcohol, DMSO, Agri-dex crop oil concentrate, and Triton® X-77 surfactant in a 64.7:26.0:6.7:2.0:0.7:0.01 v/v ratio. […]
as §3

CC(C)NC(=O)N1CC(=O)N(c2cc(Cl)cc(Cl)c2)C1=O [Iprodione, 3-(3,5-dichlorophenyl)-N-(1-methylethyl)-2,4-dioxo-1-imidazolidine=carboxamide]
0%: pest or weed control at 750 g/ha ([1]; Viola tricolor, post-emergence, fungicide 750 g/ha alone, read-out: VIOTR Ob) | AMARE Ob ([2]; fungicide 750 g/ha alone) | CIRAR Ob ([3]; fungicide 750 g/ha alone)

CC(Cc1ccc(C(C)(C)C)cc1)CN1CCCCC1 (racemic) [Fenpropidin, (±)-1-[3-[4-(1,1-dimethylethyl)phenyl]-2-methylpropyl]piperidine]
0%: pest or weed control at 562.5 g/ha ([1]; Viola tricolor, post-emergence, fungicide 562.5 g/ha alone, read-out: VIOTR Ob) | AMARE Ob ([2]; fungicide 562.5 g/ha alone) | CHEAL Ob ([4]; fungicide 562.5 g/ha alone) | CIRAR Ob ([3]; fungicide 562.5 g/ha alone)

COC(=O)NC(=S)Nc1ccccc1NC(=S)NC(=O)OC [Thiophanate-methyl, dimethyl[1,2-phenylenebis(iminocarbonothioyl)]bis[carbamate]]
0%: pest or weed control at 750 g/ha ([1]; Viola tricolor, post-emergence, alone, 750 g/ha, read-out: VIOTR Ob (observed control)) | AMARE Ob (observed control) ([2]; 750 g/ha) | CHEAL Ob (observed control) ([4]; 750 g/ha) | STEME Ob (observed control) ([5]; 750 g/ha) | CIRAR Ob (observed control) ([3]; 750 g/ha)

FC(F)C(F)(F)OCC(Cn1cncn1)c1ccc(Cl)cc1Cl (racemic) [Tetraconazole, (±)-1-[2-(2,4-dichlorophenyl)-3-(1,1,2,2-tetrafluoroethoxy)propyl]-1H-1,2,4-triazole]
0%: pest or weed control at 125 g/ha ([1]; Viola tricolor, post-emergence, alone, 125 g/ha, read-out: VIOTR Ob (observed control)) | AMARE Ob (observed control) ([2]; 125 g/ha) | CHEAL Ob (observed control) ([4]; 125 g/ha) | STEME Ob (observed control) ([5]; 125 g/ha) | CIRAR Ob (observed control) ([3]; 125 g/ha)

CO/C=C(/C(=O)OC)c1ccccc1COc1cccc(C(F)(F)F)n1 [Picoxystrobin, methyl (E)-(α)-(methoxymethylene)-2-[[[6-(trifluoromethyl)-2-pyridinyl]oxy]methyl]benzeneacetate]
0%: VIOTR Ob ([1]; fungicide 250 g/ha alone) | AMARE Ob ([2]; fungicide 250 g/ha alone) | CHEAL Ob ([4]; fungicide 250 g/ha alone) | STEME Ob ([5]; fungicide 250 g/ha alone) | CIRAR Ob ([3]; fungicide 250 g/ha alone)
